Measurements published in patent US20100035756A1, “TRIAZOLOPHYRIDINE DERIVATIVES AS HERBICIDES” (SYNGENTA LIMITED, priority 2006, published 2010).

Experiments:
[1] = system: Monocotyledonous and dicotyledonous test plants; test: Herbicidal action prior to emergence of the plants (pre-emergence action), Example B1; format: in vivo; conditions: preemergence application, 250 g/ha, evaluated after 4 weeks, 100%=total damage, 0%=no damage
Protocol: (§1) Monocotyledonous and dicotyledonous test plants are sown in seed trays in standard soil. Immediately after sowing, the test compounds are applied by spraying in the form of an aqueous suspension (prepared from a wettable powder (Example F3, b) according to WO 97/34485) or in the form of an emulsion (prepared from an emulsifiable concentrate (Example F1, c) according to WO 97/34485) in a concentration of 250 g/ha. The test plants are then grown in a greenhouse under optimum conditions. After a 4-week test period, the test is evaluated (100%=total damage to plant; 0%=no damage to plant; NC not evaluated).

[2] = system: Monocotyledonous and dicotyledonous test plants; test: Herbicidal action after emergence of the plants (post-emergence herbicidal action), Example B2; format: in vivo; conditions: postemergent application, 125 g/ha, 2- to 3-leaf stage, evaluated after 2-3 weeks, 100%=total damage
Protocol: as §1, with “When the test plants are at the 2- to 3-leaf stage,” for “Immediately after sowing,”, “125” for “250”, “grown on” for “grown”, “2- to 3-week” for “4-week”, “plant).” for “plant; NC not evaluated).”

| Structure (SMILES) | herbicidal damage, ABUTH [1] | herbicidal damage, AMARE [1] | herbicidal damage, BRAPL [1] | herbicidal damage, DIGSA [1] | herbicidal damage, ECHCG [1] | herbicidal damage, SETFA [1] | herbicidal damage, STEME [1] | herbicidal damage, VERPE [1] | herbicidal damage, ABUTH [2] | herbicidal damage, AMARE [2] | herbicidal damage, CHEAL [2] | herbicidal damage, DIGSA [2] | herbicidal damage, SETFA [2] | herbicidal damage, SINAR [2] | herbicidal damage, VERPE [2] | herbicidal damage, XANST [2] |
| --- | --- | --- | --- | --- | --- | --- | --- | --- | --- | --- | --- | --- | --- | --- | --- | --- |
| O=C(C1=C(O)C2CCC(C2)C1=O)c1ccc(C(F)(F)F)n2ncnc12 (stereo not shown) [2.1] | 100% | 100% | 100% | 100% | 90% | 90% | 70% | 40% |  |  |  |  |  |  |  |  |
| O=C(C1=C(O)C2CCC(C2)C1=O)c1ccc(C(F)(F)F)n2nc(Cl)nc12 (stereo not shown) [2.2] | 50% | 70% | 50% | 50% | 70% | 10% | 0% | 60% | 40% | 80% | 80% | 90% | 80% | 70% | 70% | 60% |
| Cc1nc2c(C(=O)C3=C(O)C4CCC(C4)C3=O)ccc(C(F)(F)F)n2n1 (stereo not shown) [2.4] | 70% | 60% | 10% | 30% |  | 20% | 60% | 10% | 80% | 80% | 80% | 70% | 70% | 80% | 30% | 80% |
| CC(C)c1nc2c(C(=O)C3=C(O)C4CCC(C4)C3=O)ccc(C(F)(F)F)n2n1 (stereo not shown) [2.7] | 30% | 20% | 0% | 0% | 10% | 0% | 20% | 50% | 70% |  | 70% | 20% | 20% | 60% | 10% | 70% |
| O=C(C1=C(O)C2CCC(C2)C1=O)c1ccc(C(F)(F)F)n2nc(-c3ccc(Cl)cc3)nc12 (stereo not shown) [2.35] | 0% | 0% | 50% | 20% | 0% | 0% | 50% | 0% |  |  |  |  |  |  |  |  |
| CCOc1nc2c(C(=O)C3=C(O)C4CCC(C4)C3=O)ccc(C(F)(F)F)n2n1 (stereo not shown) [2.209] | 100% | 100% | 90% | 80% | 70% | 80% | 70% | 30% | 80% | 90% | 80% | 80% | 80% | 80% | 80% | 80% |
| Cc1nc2c(C(=O)C3=C(O)C(C)(C)C(=O)C(C)(C)C3=O)ccc(C(F)(F)F)n2n1 [13.3] | 100% | 90% | 80% | 80% | 30% | 70% | 100% | 100% | 80% | 70% | 50% | 60% | 70% | 80% | 70% | 80% |
| O=C(C1=C(O)C2CCC(C2)C1=O)c1ccc(C(F)(F)F)n2cnnc12 (stereo not shown) [Compound 1.1] | 100% |  | 30% | 70% | 0% | 30% | 100% | 60% | 80% | 80% | 80% | 60% | 80% | 90% | 50% | 80% |
| O=C(C1=C(O)C2CCC(C2)C1=O)c1ccc(C(F)(F)F)n2c(-c3ccc(Cl)cc3)nnc12 (stereo not shown) [Compound 1.35] | 50% | 100% | 100% | 100% | 0% | 30% | 70% | 40% |  |  |  |  |  |  |  |  |
| O=C1CCCC(O)=C1C(=O)c1ccc(C(F)(F)F)n2cnnc12 [Compound 3.1] | 100% | 100% | 40% | 100% | 10% | 0% | 70% | 60% |  |  |  |  |  |  |  |  |
| O=C1CCCC(O)=C1C(=O)c1ccc(C(F)(F)F)n2c(Cl)nnc12 [Compound 3.2] | 100% | 100% | 0% | 80% | 70% | 0% | 100% | 100% |  |  |  |  |  |  |  |  |
| O=C1CCCC(O)=C1C(=O)c1ccc(C(F)(F)F)n2c(OC(F)F)nnc12 [Compound 3.12] | 50% | 100% | 60% | 10% | 0% | 0% | 0% |  |  |  |  |  |  |  |  |  |
| O=C1CCCC(O)=C1C(=O)c1ccc(C(F)(F)F)n2c(-c3cccnc3)nnc12 [Compound 3.15] | 10% | 0% | 30% | 30% | 30% | 30% | 60% | 30% |  |  |  |  |  |  |  |  |
| CC1(C)C(=O)C(C(=O)c2ccc(C(F)(F)F)n3cnnc23)=C(O)C(C)(C)C1=O [Compound 5.1] | 100% | 100% | 100% | 100% | 90% | 40% | 100% | 80% |  |  |  |  |  |  |  |  |
| CC1(C)C(=O)C(C(=O)c2ccc(C(F)(F)F)n3c(Br)nnc23)=C(O)C(C)(C)C1=O [Compound 5.2] |  |  |  |  |  |  |  |  | 90% | 80% | 100% | 70% | 80% | 90% | 90% | 70% |
| Cc1nc2c(C(=O)C3=C(O)CCCC3=O)ccc(C(F)(F)F)n2n1 [Compound 11.3] | 70% | 40% | 50% | 30% | 0% | 10% | 40% | 40% |  |  |  |  |  |  |  |  |
